Here are results for five molecules from PMC10412832 (Computational and Structural Biotechnology Journal, 2023).

Where two headings read alike, the source gives them in different places. Ends that are not written are not given here.

For data set [1] the following is noted: ref [44]; cited from earlier work.
The target in data set [2] is recombinant SARS-CoV-2 M^pro (Severe acute respiratory syndrome coronavirus 2, UniProt P0DTD1).
The conditions of data set [3]: ref [46]; cited from earlier work.
A further data set has as its system SARS-CoV-2. Conditions: cited from earlier work.

“Protegrin 2: cysteine rich potent antimicrobial peptide originally isolated from pigs; two cysteine-cysteine disulfide bridges; PDB ID 2MUH”: the Antimicrobial activity entry in data set [1] is “potent”. The “M^pro proteolytic cleavage activity” value in data set [2] is “inhibits the proteolytic cleavage activity of M^pro”. In addition, the Toxicity result in data set [3] was “low toxicity”.

Regarding “beta-defensin 1: naturally occurring antimicrobial peptide (DHYNCVSSGGQCLYSACPIFTKIQGTCYRGKAKCCK; ends and bridges not checked; cysteine pairing not given here; UniProt P60022 33-68, looked up)”, in the data set on SARS-CoV-2 (ref [36]), the “Effect against viruses / SARS-CoV-2” value is “effective against viruses and a few against SARS-CoV-2”.

In the case of “LL-37: Source: Homo sapiens (LLGDFFRKSKEKIGKEFKRIVQRIKDFLRNLVPRTES; Antibacterial peptide LL-37; UniProt P49913 134-170, looked up)”, in the data set with SARS-CoV-2 (ref [36]), the “Effect against viruses / SARS-CoV-2” value was “effective against viruses and a few against SARS-CoV-2”.

On to “Protegrin 1: Source: Sus scrofa (RGGRLCYCRRRFCVCVGR; ends and bridges not checked; cysteine pairing not given here; UniProt P32194 131-148, looked up)”, for which, in the data set with SARS-CoV-2 (ref [36]), the “Effect against viruses / SARS-CoV-2” value is “effective against viruses and a few against SARS-CoV-2”.

B1: human defensin 5: Source: Homo sapiens (peptide, UniProt Q01523 20-94, looked up)
Defensin alpha 5: ESLQERADEATTQKQSGEDNQDLAISFAGNGLSALRTSGSQARATCYCRTGRCATRESLSGVCEISGRLYRLCCR
modifications: Defensin-5
For B1, the “Effect against viruses / SARS-CoV-2” value in the data set on SARS-CoV-2 (ref [38], [39]) was “effective against viruses and a few against SARS-CoV-2”.
